# Test results: US7071231B2, “Naphthalene ureas as glucose uptake enhancers” (Telik, Inc., priority 1999, dated 2006)
# What was measured:
# [1] = target: T1, β-kinase domain of the human insulin receptor (CKD) (Homo sapiens, UniProt P06213); experiment: 32P-cytoplasmic kinase domain (CKD) autophosphorylation assay; format: biochemical; settings: phosphorylation of CKD expressed as % of the vehicle level; 10 minutes at room temperature; compound concentration not given
# T1 construct: The complete β-kinase domain of the human insulin receptor (CKD) was expressed in, and purified from, baculovirus; made in house
# T1 sequence (P06213 980-1382 limits assumed): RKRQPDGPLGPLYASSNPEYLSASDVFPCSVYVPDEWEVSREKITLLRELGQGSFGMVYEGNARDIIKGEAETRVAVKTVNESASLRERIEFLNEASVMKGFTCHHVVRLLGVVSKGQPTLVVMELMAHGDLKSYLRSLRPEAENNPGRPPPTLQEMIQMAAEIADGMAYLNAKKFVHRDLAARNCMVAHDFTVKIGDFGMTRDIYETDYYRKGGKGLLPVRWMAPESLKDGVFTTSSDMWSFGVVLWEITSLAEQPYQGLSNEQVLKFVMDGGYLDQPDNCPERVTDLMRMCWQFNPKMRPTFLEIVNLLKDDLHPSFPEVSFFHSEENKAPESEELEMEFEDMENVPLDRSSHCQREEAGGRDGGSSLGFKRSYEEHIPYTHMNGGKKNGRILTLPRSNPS
# Procedure, shortened: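 Baculovirus-expressed CKD (4.0 μg/ml) in 29 mM HEPES pH 7.6, 10 mM MgCl2, 2 mM MnCl2 with 50 μM ATP plus ^32P-ATP, 1% DMSO, 10 min at room temperature. EDTA stop, SDS-PAGE, CKD-band radioactivity by phosphorimaging or scintillation counting; activity as % of vehicle phosphorylation.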
# male db/db mice = experiment: Acute toxicity in db/db mice; format: in vivo; settings: i.p., 300 mg/kg in PBS
# Procedure: Compound 15 was administered in PBS vehicle to male db/db mice (i.p.) and male CD rats (p.o.) at 300 mg/kg, which is approximately 10 times its effective dose.
# CYP1A2 = CYP1A2 (Homo sapiens, UniProt P05177); experiment: P450 interactions: CYP1A2 inhibition; format: in vitro ADME; settings: human cytochromes P450
# Chain of CYP1A2 (P05177 whole entry): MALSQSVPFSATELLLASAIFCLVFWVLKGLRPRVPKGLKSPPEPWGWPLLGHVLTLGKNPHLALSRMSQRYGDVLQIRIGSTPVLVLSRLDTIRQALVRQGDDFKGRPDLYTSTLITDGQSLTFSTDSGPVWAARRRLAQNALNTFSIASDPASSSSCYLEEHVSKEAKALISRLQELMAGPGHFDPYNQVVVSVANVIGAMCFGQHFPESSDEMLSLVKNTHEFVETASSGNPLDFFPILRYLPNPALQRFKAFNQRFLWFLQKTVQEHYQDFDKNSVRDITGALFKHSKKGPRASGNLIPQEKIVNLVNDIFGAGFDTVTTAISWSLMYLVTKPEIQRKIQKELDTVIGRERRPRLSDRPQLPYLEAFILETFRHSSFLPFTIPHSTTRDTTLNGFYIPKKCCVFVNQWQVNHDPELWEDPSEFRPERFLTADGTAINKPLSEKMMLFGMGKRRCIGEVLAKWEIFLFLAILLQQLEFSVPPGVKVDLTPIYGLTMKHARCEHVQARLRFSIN
# Excerpt: (§1) A major pathway for elimination of drugs from the body, which may limit their effectiveness, is the cytochrome P450 system of the liver.
# CYP2C19 = CYP2C19 (Homo sapiens, UniProt P33261); experiment: P450 interactions: CYP2C19 inhibition; format: in vitro ADME; settings: human cytochromes P450
# Chain of CYP2C19 (P33261 whole entry): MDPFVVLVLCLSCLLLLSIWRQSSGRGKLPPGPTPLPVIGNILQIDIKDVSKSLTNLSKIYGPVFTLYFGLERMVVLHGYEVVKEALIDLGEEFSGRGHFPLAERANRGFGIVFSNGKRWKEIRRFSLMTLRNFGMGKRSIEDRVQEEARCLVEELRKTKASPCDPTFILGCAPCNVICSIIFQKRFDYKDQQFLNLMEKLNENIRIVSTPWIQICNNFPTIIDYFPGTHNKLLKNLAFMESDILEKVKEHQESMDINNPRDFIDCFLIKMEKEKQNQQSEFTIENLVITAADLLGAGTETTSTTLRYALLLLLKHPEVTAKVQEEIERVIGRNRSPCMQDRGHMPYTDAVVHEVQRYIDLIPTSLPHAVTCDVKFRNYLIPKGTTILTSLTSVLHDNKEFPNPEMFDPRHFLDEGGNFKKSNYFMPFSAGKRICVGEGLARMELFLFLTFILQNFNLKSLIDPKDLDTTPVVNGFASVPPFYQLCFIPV
# Excerpt: as §1
# EGFR = target: T2, EGFR (Homo sapiens, UniProt P00533); experiment: Selectivity: EGFR phosphorylation in A431 cells; format: cell-based; settings: in the presence or absence of EGF (2.5 ng/ml)
# T2 construct: endogenous in cells; host or cells: A431
# T2 sequence (P00533 25-1210): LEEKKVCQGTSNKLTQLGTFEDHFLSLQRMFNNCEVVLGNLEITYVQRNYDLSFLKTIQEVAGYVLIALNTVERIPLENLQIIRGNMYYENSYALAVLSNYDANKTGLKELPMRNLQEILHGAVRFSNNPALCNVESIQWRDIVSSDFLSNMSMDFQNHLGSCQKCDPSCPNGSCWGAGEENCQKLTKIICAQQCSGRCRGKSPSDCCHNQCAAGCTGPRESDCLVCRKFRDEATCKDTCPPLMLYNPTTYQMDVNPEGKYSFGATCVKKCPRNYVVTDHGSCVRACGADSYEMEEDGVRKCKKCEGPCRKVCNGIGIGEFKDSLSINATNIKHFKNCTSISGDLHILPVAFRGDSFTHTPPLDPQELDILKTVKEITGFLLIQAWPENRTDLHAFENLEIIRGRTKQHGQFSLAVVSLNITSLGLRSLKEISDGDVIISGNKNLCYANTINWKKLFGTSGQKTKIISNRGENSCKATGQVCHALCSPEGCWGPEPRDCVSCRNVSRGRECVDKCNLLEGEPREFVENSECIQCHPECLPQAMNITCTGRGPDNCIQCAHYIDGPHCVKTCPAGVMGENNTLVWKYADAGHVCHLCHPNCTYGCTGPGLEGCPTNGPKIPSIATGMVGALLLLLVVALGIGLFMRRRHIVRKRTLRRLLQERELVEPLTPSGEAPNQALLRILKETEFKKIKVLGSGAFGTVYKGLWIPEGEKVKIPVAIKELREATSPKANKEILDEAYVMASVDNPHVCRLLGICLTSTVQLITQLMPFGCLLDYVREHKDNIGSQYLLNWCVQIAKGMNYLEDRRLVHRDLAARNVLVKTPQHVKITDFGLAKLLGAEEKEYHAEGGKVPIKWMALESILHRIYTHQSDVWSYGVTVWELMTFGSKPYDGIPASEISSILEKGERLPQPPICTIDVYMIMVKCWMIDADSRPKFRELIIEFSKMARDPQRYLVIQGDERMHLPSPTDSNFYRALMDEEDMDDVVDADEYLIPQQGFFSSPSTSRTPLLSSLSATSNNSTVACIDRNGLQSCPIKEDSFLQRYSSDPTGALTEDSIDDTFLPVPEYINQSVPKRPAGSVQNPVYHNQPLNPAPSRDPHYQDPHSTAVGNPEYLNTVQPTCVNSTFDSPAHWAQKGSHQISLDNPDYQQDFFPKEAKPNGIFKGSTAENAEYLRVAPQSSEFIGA
# Procedure: Selectivity vs. EGFR, PDGFR and IGFR
# In order to determine the selectivity of these compounds for the insulin receptor, their effects on other receptors that share a similar mechanism of activation with the insulin receptor were examined. Human epidermoid carcinoma (A431) cells were plated at a density of 2×10^5 cells per well in 6-well dishes in DMEM with 10% FBS and L-Glutamine and allowed to grow to 75% confluence. Prior to the experiment, the cells were serum-starved overnight with DMEM with 0.1% BSA. The following morning, the cells were washed with PBS and the medium was replaced with 150 mM NaCl, 1.7 mM KCl, 0.9 mM CaCl2, K2HPO4 (pH 7.4), to which was added either the experimental compound or its vehicle (DMSO). Epidermal Growth Factor (EGF) or its vehicle (0.01% BSA) was diluted in the assay buffer (containing test compound or vehicle respectively) to a final concentration of 2.5 ng/ml. After incubating for 15 min, the cells were washed with cold PBS twice and lysed in 50 mM Tris.HCl pH 7.4, 150 mM NaCl, 0.25% sodium deoxycholate, 1% NP40, 1 mM EGTA, 1 mM PMSF, 1 mM Na3VO4, 1 mM NaF, 1 ug/ml each of Aprotinin, Leupeptin and Pepstatin. The cell lysates were clarified by centrifugation at 12000 rpm, and the supernatants were estimated for protein concentration. […]
# [2] = test system: platelet-derived growth factor (PDGF) receptor; experiment: Selectivity: PDGF receptor phosphorylation; format: cell-based; settings: in the absence or presence of PDGF
# CYP2D6 = CYP2D6 (Homo sapiens, UniProt P10635); experiment: P450 interactions: CYP2D6 inhibition; format: in vitro ADME; settings: human cytochromes P450
# Chain of CYP2D6 (P10635 whole entry): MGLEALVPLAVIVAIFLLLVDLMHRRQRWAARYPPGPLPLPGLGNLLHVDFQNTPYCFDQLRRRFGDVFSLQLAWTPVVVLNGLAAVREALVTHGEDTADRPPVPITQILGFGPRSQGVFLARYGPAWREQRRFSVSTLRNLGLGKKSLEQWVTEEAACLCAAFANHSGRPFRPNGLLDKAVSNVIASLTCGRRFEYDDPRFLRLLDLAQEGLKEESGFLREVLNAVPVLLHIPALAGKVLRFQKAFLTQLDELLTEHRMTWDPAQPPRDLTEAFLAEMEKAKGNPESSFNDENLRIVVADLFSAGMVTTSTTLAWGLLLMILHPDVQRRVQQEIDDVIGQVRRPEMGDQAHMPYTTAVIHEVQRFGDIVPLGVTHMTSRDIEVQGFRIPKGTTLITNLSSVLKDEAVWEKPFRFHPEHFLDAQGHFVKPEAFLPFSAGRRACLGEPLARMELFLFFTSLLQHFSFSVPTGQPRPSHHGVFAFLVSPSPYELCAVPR
# Excerpt: as §1
# [3] = Distribution of compound-[14C]-15 after oral administration; format: in vivo, rat; settings: STZ/HFD rats, single oral dose 30 mg/kg 14C-labeled, two hours later
# Procedure: Distribution of Compound-[14C]-15 After Oral Administration
# STZ/HFD rats, prepared as in Example 19, were given a single oral dose of 30 mg/kg compound-[14C]-15 labeled with 50 μCi of 14C prepared as in Example 11A. Two hours later the animals were euthanized and 200 mg samples of various tissues were removed by an IACUC-approved protocol. The tissue samples were homogenized and their radioactivity content was measured by scintillation counting. The highest levels of radioactivity were found in the pancreas, liver, and thigh muscle. These corresponded to Compound 15 concentrations of approximately 780 nM, 200 nM, and 175 nM, respectively. These concentrations would be sufficient to produce insulin receptor phosphorylation in vitro. Lower levels of radioactivity indicative of 50 nM to 100 nM concentrations of the compound were found in abdominal muscle, fat, kidney, and spleen.
# CYP3A4 = CYP3A4 (Homo sapiens, UniProt P08684); experiment: P450 interactions: CYP3A4 inhibition; format: in vitro ADME; settings: human cytochromes P450
# Chain of CYP3A4 (P08684 whole entry): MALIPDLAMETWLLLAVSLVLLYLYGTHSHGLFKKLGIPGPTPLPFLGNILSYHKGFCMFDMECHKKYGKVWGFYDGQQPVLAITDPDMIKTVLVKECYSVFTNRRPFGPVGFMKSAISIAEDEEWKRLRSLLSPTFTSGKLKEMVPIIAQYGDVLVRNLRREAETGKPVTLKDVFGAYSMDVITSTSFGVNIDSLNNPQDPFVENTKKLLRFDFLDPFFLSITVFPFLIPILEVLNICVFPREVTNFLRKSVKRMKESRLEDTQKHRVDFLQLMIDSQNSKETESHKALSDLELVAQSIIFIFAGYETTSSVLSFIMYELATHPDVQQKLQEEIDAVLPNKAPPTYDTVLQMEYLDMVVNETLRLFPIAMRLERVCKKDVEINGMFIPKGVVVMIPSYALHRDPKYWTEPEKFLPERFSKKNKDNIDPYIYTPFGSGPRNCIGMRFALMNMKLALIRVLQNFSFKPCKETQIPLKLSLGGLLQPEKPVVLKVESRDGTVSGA
# Excerpt: as §1
compound,measurement,setting,value
"O=C(Nc1ccc2c(O)cc(S(=O)(=O)Nc3cccc(S(=O)(=O)O)c3)cc2c1)Nc1ccc2c(O)cc(S(=O)(=O)Nc3cccc(S(=O)(=O)O)c3)cc2c1 [Compound 15, 3-{[(4-hydroxy-7-{[N-(5-hydroxy-7-{[(3-sulfophenyl)amino]sulfonyl}(2-naphthyl))carbamoyl]amino}-2-naphthyl)sulfonyl]amino}benzenesulfonic acid]",% Activity vs. Control,[1],125%
same,acute toxicity,male db/db mice,No acute toxicity was seen
same,inhibition of catalytic activity of CYP1A2,CYP1A2,did not inhibit
same,inhibition of catalytic activity of CYP2C19,CYP2C19,did not inhibit
same,phosphorylation of EGFR,EGFR,did not increase the phosphorylation of EGFR
same,phosphorylation of the PDGF receptor,[2],not to increase the phosphorylation
same,inhibition of catalytic activity of CYP2D6,CYP2D6,did not inhibit
same,amount of radioactivity in the blood,[3],not above background levels
same,"tissue concentration, liver",[3],~200 nM
same,"tissue concentration, pancreas",[3],approximately 780 nM
same,"tissue concentration, thigh muscle",[3],~175 nM
same,inhibition of catalytic activity of CYP3A4,CYP3A4,did not inhibit
